“And” between values parts separate entries of the source, which are not always exact repeats. Equal entries are not always repeated. Where two headings read alike, the source gives them in different places.
Experiments:
[1] = tested on: SARS-CoV-2 Nucleocapsid gene; assay type: cell-based
Vero-6 cells = test: Cellular toxicity of siRNA/ADGN-100 complexes on Vero-6 cells, CellTiter-Glo; conditions: uninfected Vero-6 cells
SARS-CoV-2 [2] = test: siRNA/ADGN-100 complexes on SARS-CoV2 virus infection, Vero E6 cells; assay type: cell-based
SARS-CoV-2 ORF 3A gene = assay type: cell-based
[3] = molecular target: SARS-CoV-2 Spike: ACE2 interaction (UniProt P0DTC2+Q9BYF1); test: biochemical; assay type: binding
SARS-CoV-2 [4] = tested on: SARS-CoV-2
[5] = Nanoparticle formation of peptides with ADGN-106: mean size and polydispersity (Zetasizer); assay type: physicochemical; conditions: 25° C.
Excerpt: We then tested the ability of the different peptides to form nanoparticle organization in the presence of ADGN-106 or ADGN-100 peptide. […] Peptides were complexed with 5 or 10 molar excess of ADGN-106.

SARS-CoV-2 ORF 8 gene = assay type: cell-based
SARS-CoV-2 [6] = test: microbe, parasite or virus in culture
SARS-CoV-2 [7] = conditions: read-out: SARS-COV2 IC50; original strain, second Table 19; siRNA complexed at molar ratio 1/20
SARS-CoV-2 nucleocapside = assay type: cell-based; conditions: read-out: IC50 of silencing response
[8] = siRNA complexed with ADGN-100 at molar ratio 1/20, added to Vero-E6 immediately prior to virus infection, read-out: IC50

Sequence of SARS-CoV-2 Spike: ACE2 interaction (Q9BYF1 18-740, one chain of several): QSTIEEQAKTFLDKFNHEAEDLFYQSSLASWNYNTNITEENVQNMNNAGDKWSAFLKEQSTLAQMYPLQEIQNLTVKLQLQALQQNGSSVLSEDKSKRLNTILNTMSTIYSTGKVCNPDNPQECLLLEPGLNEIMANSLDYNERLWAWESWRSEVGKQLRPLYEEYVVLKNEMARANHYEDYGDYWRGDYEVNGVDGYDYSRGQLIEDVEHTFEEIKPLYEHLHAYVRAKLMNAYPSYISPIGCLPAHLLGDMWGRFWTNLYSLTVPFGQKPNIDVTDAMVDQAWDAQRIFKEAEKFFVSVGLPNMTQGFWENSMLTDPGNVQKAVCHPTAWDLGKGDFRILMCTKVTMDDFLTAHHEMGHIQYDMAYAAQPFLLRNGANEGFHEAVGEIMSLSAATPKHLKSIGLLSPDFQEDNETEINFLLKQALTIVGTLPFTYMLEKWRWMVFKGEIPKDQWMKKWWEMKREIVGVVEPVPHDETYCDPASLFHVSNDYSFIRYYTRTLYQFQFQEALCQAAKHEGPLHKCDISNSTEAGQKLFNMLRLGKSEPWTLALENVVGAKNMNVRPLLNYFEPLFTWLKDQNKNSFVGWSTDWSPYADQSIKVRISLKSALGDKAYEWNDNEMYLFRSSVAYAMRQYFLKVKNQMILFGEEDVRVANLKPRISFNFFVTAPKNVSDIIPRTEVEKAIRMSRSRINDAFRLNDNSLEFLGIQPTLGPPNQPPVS

Q: Which IC50 [1] does the source give for “GACAAGGCGTTCCAATTAACA (chemistry not given here) [DIVC-3]” here?
A: Its IC50 is 11.4 ± 5 nM.

Q: And the “TD50 (μM)” value (Vero-6 cells)?
A: Its value is 452 + 20 μM.

Q: And the IC50 (SARS-CoV-2 [2]; [8])?
A: The IC50 was 84 ± 14 nM.

Q: With “TGCAGAGTATAAACTTTGTAA (chemistry not given here) [DIVC-35]” as the molecule, how does the IC50 (SARS-CoV-2 ORF 3A gene) read?
A: The IC50 was 125 ± 11 nM.

Q: Which results are given for “Ac-T*NGVGYQPYK*-Ava-LWRALWRLWRSLWRLLWK-NH2 [Seq22]”?
A: blocked SARS-CoV-2 Spike: ACE2 interaction [3]: blocked; fold less potent than Seq20/Seq21 [3]: 3.6 fold; Residual Infection (%) (SARS-CoV-2 [4]): 40%; inhibition of viral infection (SARS-CoV-2 [4]): exhibit inhibition of viral infection; reduction of virus infection (SARS-CoV-2 [4]): 60%; IC50 (SARS-CoV-2 [4]; read-out: D-IC50): 124 ± 14 nM; IC50 (SARS-CoV-2 [4]; read-out: P-IC50): 145 ± 25 nM; TD50 (Vero E6 cells; uninfected Vero E6 cells): 358 ± 27 µM; Cell Viability (%) (Vero E6 cells; uninfected Vero E6 cells, 0.5 µM): 87%; Mean Size (nm) ([5]; peptide/ADGN-106 complexes): 54.4 ± 8 nm; PI ([5]; polydispersity index of peptide/ADGN-106 complexes): 0.24

Q: Which IC50 (SARS-CoV-2 ORF 8 gene) does the source give for “GCGTTGTTCGTTCTATGAAGA (chemistry not given here) [DIVC-84]” here?
A: The IC50 was 113 ± 15 nM.

Q: Which IC50 (SARS-CoV-2 ORF 3A gene) does the source give for GGTGAAATCAAGGATGCTACT [DIVC-31] here?
A: The IC50 was 18.4 ± 2 nM.

Q: For `CCN(CCO)CCCC(C)Nc1ccnc2cc(Cl)ccc12` (stereo not shown) [Hydroxy chloroquine], which IC50 (SARS-CoV-2 [6]; Severe acute respiratory syndrome coronavirus 2, Vero C1008, read-out: IC50 against SARS-CoV2 virus infection) is on record?
A: Its IC50 is 4400 ± 215 nM.

Q: And the IC50 (SARS-CoV-2 [6]; Severe acute respiratory syndrome coronavirus 2, Vero C1008, read-out: P-IC50 (nM))?
A: The IC50 was 4700 nM.

Q: And the IC50 (SARS-CoV-2 [6]; Severe acute respiratory syndrome coronavirus 2, Vero, read-out: D-IC50 (nM))?
A: Its IC50 is 4400 ± 215 nM.

Q: What about the “TD50” value (Vero E6 cells; African green monkey) of the same molecule?
A: The value was 190 ± 28 µM.

Q: Which results are given for “GGCCAAACTGTCACTAAGAAA (chemistry not given here) [DIVC-6]”?
A: IC50 [1]: 8.7 ± 2 nM; TD50 (μM) (Vero-6 cells): 652 + 24 μM; fold stronger anti-SARS-CoV-2 activity than hydroxychloroquine sulfate (SARS-CoV-2 [2]): 64 fold; IC50 (SARS-CoV-2 [2]; [8]): 68 ± 12 nM; IC50 (SARS-CoV-2 [7]): 68 nM; IC50 (SARS-CoV-2 nucleocapside): 11 nM and 8.7 nM

Q: Which IC50 (SARS-CoV-2 ORF 8 gene) does the source give for “GTTGATGACCCGTGTCCTATT (chemistry not given here) [DIVC-81]” here?
A: The IC50 was > 200 nM.

Q: With GTGGATGAGGCTGGTTCTAAA [DIVC-83] as the molecule, how does the IC50 (SARS-CoV-2 ORF 8 gene) read?
A: Its IC50 is 15.4 ± 3 nM.

Q: Which IC50 (SARS-CoV-2 ORF 8 gene) does the source give for GACCCGTGTCCTATTCACTTC [DIVC-82] here?
A: Its IC50 is 21.7 ± 7 nM.

Q: Which results are given for “GTCCTATTCACTTCTATTCTA (chemistry not given here) [DIVC-85]”?
A: TD50 (μM) (Vero-6 cells): 248 + 35 μM; IC50 (SARS-CoV-2 ORF 8 gene): 10.8 ± 2 nM; IC50 (SARS-CoV-2 [2]; read-out: IC50 against SARS-CoV2 virus infection): ~1000 nM; IC50 (SARS-CoV-2 [2]; [8]): 1220 nM
